# Measured values published in ChEMBL document CHEMBL1201862, “PubChem BioAssay data set” (2004).
#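 The compound was tested at five concentrations on cells cultured in 96-well plates, with a 48-hour exposure period. GI50 marks 50% less growth.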 The source made the active and inactive calls. Cut-off read from the data, not from the text of the source: active = GI50 up to about 1.1 µM and inactive = higher.
# Columns and labels:
# Test in all cases: DTP human tumour cell line panel, 48 h
# 786-0 = test system: 786-0
# A549 = test system: A549
# ACHN = test system: ACHN
# BT-549 = test system: BT-549
# DU-145 = test system: DU-145
# EKVX = test system: EKVX
# HCC 2998 = test system: HCC 2998
# HCT-116 = test system: HCT-116
# HOP-62 = test system: HOP-62
# HOP-92 = test system: HOP-92
# Hs-578T = test system: Hs-578T
# IGROV-1 = test system: IGROV-1
# KM12 = test system: KM12
# LOX IMVI = test system: LOX IMVI
# M14 = test system: M14
# MDA-MB-231 = test system: MDA-MB-231
# NCI-H226 = test system: NCI-H226
# NCI-H460 = test system: NCI-H460
# NCI-H522 = test system: NCI-H522
# NCI/ADR-RES = test system: NCI/ADR-RES
# OVCAR-3 = test system: OVCAR-3
# OVCAR-4 = test system: OVCAR-4
# OVCAR-8 = test system: OVCAR-8
# PC-3 = test system: PC-3
# RXF 393 = test system: RXF 393
# SF-268 = test system: SF-268
# SF-539 = test system: SF-539
# SK-MEL-28 = test system: SK-MEL-28
# SK-MEL-2 = test system: SK-MEL-2
# SNB-75 = test system: SNB-75
# SW-620 = test system: SW-620
# T47D = test system: T47D
# TK-10 = test system: TK-10
# U-251 = test system: U-251
# UACC-257 = test system: UACC-257
# CAKI-1 = test system: CAKI-1
# CCRF-CEM = test system: CCRF-CEM
# COLO 205 = test system: COLO 205
# HCT-15 = test system: HCT-15
# HL-60 = test system: HL-60
# HT-29 = test system: HT-29
# K562 = test system: K562
# MCF7 = test system: MCF7
# MDA-MB-435 = test system: MDA-MB-435
# MOLT-4 = test system: MOLT-4
# Malme-3M = test system: Malme-3M
# NCI-H23 = test system: NCI-H23
# OVCAR-5 = test system: OVCAR-5
# RPMI-8226 = test system: RPMI-8226
# SF-295 = test system: SF-295
# SK-MEL-5 = test system: SK-MEL-5
# SK-OV-3 = test system: SK-OV-3
# SN12C = test system: SN12C
# SNB-19 = test system: SNB-19
# SR = test system: SR
# UO-31 = test system: UO-31
smiles,measurement,setting,value
COc1cc(OC)c2[nH]c3c(O)c(-c4c(C)cc5c([nH]c6c(OC)cc(OC)cc65)c4O)c(C)cc3c2c1,GI50,786-0,8.3 µM (inactive)
same,GI50,A549,6.49 µM (inactive)
same,GI50,ACHN,8.77 µM (inactive)
same,GI50,BT-549,9.02 µM (inactive)
same,GI50,DU-145,7.87 µM (inactive)
same,GI50,EKVX,6.22 µM (inactive)
same,GI50,HCC 2998,8.51 µM (inactive)
same,GI50,HCT-116,8.81 µM (inactive)
same,GI50,HOP-62,10.3 µM (inactive)
same,GI50,HOP-92,8.73 µM (inactive)
same,GI50,Hs-578T,9.44 µM (inactive)
same,GI50,IGROV-1,7.18 µM (inactive)
same,GI50,KM12,9.4 µM (inactive)
same,GI50,LOX IMVI,7.89 µM (inactive)
same,GI50,M14,8.38 µM (inactive)
same,GI50,MDA-MB-231,9.23 µM (inactive)
same,GI50,NCI-H226,9.08 µM (inactive)
same,GI50,NCI-H460,8.55 µM (inactive)
same,GI50,NCI-H522,9.06 µM (inactive)
same,GI50,NCI/ADR-RES,8.77 µM (inactive)
same,GI50,OVCAR-3,8.87 µM (inactive)
same,GI50,OVCAR-4,9.42 µM (inactive)
same,GI50,OVCAR-8,8.43 µM (inactive)
same,GI50,PC-3,7.91 µM (inactive)
same,GI50,RXF 393,9.12 µM (inactive)
same,GI50,SF-268,8.39 µM (inactive)
same,GI50,SF-539,9.42 µM (inactive)
same,GI50,SK-MEL-28,9.38 µM (inactive)
same,GI50,SK-MEL-2,9.25 µM (inactive)
same,GI50,SNB-75,7.89 µM (inactive)
same,GI50,SW-620,9.35 µM (inactive)
same,GI50,T47D,8.85 µM (inactive)
same,GI50,TK-10,10.1 µM (inactive)
same,GI50,U-251,11.7 µM (inactive)
same,GI50,UACC-257,9.33 µM (inactive)
O=C(c1ccccc1)N1CCC(Nc2nccs2)O1 (stereo not drawn),GI50,786-0,> 10 µM (inactive)
same,GI50,A549,> 10 µM (inactive)
same,GI50,ACHN,> 10 µM (inactive)
same,GI50,BT-549,> 10 µM (inactive)
same,GI50,CAKI-1,> 10 µM (inactive)
same,GI50,CCRF-CEM,> 10 µM (inactive)
same,GI50,COLO 205,> 10 µM (inactive)
same,GI50,DU-145,> 10 µM (inactive)
same,GI50,EKVX,> 10 µM (inactive)
same,GI50,HCC 2998,> 10 µM (inactive)
same,GI50,HCT-116,> 10 µM (inactive)
same,GI50,HCT-15,> 10 µM
same,GI50,HL-60,> 10 µM (inactive)
same,GI50,HOP-62,> 10 µM (inactive)
same,GI50,HT-29,> 10 µM (inactive)
same,GI50,Hs-578T,> 10 µM (inactive)
same,GI50,IGROV-1,> 10 µM (inactive)
same,GI50,K562,> 10 µM (inactive)
same,GI50,LOX IMVI,> 10 µM (inactive)
same,GI50,M14,> 10 µM (inactive)
same,GI50,MCF7,> 10 µM (inactive)
same,GI50,MDA-MB-231,> 10 µM (inactive)
same,GI50,MDA-MB-435,> 10 µM (inactive)
same,GI50,MOLT-4,> 10 µM (inactive)
same,GI50,Malme-3M,> 10 µM (inactive)
same,GI50,NCI-H226,> 10 µM (inactive)
same,GI50,NCI-H23,> 10 µM (inactive)
same,GI50,NCI-H460,> 10 µM (inactive)
same,GI50,NCI-H522,> 10 µM (inactive)
same,GI50,NCI/ADR-RES,> 10 µM (inactive)
same,GI50,OVCAR-3,> 10 µM (inactive)
same,GI50,OVCAR-4,> 10 µM (inactive)
same,GI50,OVCAR-5,> 10 µM (inactive)
same,GI50,OVCAR-8,> 10 µM (inactive)
same,GI50,PC-3,> 10 µM (inactive)
same,GI50,RPMI-8226,> 10 µM (inactive)
same,GI50,RXF 393,> 10 µM (inactive)
same,GI50,SF-268,> 10 µM (inactive)
same,GI50,SF-295,> 10 µM (inactive)
same,GI50,SF-539,> 10 µM (inactive)
same,GI50,SK-MEL-28,> 10 µM (inactive)
same,GI50,SK-MEL-2,> 10 µM (inactive)
same,GI50,SK-MEL-5,> 10 µM (inactive)
same,GI50,SK-OV-3,> 10 µM (inactive)
same,GI50,SN12C,> 10 µM (inactive)
same,GI50,SNB-19,> 10 µM (inactive)
same,GI50,SNB-75,> 10 µM (inactive)
same,GI50,SR,> 10 µM (inactive)
same,GI50,SW-620,> 10 µM (inactive)
same,GI50,T47D,> 10 µM (inactive)
same,GI50,TK-10,> 10 µM (inactive)
same,GI50,UACC-257,> 10 µM (inactive)
same,GI50,UO-31,> 10 µM (inactive)
